Tested on: MUC1-fs
Test: BRD-4780 treatment in fs/+ knock-in mice, kidney MUC1-fs by IF and Western blot
Format: in vivo, mouse
Experimental: Mice were anesthetized with 3 L/min 02 mixed with 3% isoflurane using the Combi-Vet® system (Rothacher Medical, Bern, Switzerland) for 5 min. Mouse kidneys were removed, sagittally cut to half and rapidly frozen in Tissue-Tek® O.C.T. Compound, Sakura® Finetek (OCT) (25608-930, VWR) using dry ice and 100% ethanol. Five […] sagittal cryosections (CM1950, Leica) were thaw mounted on microscope slides (Fisherbrand™ Superfrost™ Plus, Fisher Scientific) and kept in the cryostat (at −26° C.) for the duration of the sectioning process. Sections were immersion-fixed for 10 min in 4% PFA (15710, Electron Microscopy Sciences), then washed in PBS. The slides were then subjected to antigen retrieval by immersion in 10 mM citric acid buffer (pH=6), for 10 minutes at 95° C. […]
MUC1-fs and MUC1-wt mean intensities were calculated in kidney sections of mice treated with either vehicle or BRD-4780 (FIGS. 4A, 4B and 12A). As MUC1-fs and MUC1-wt levels varied in different kidney regions, and as sections might contain different portions of the different kidney regions, the levels of these proteins were analyzed only in NCC-positive distal convoluted tubules. […] Each fluorescent channel intensity was measured and a threshold was set for the identification of NCC positive cells. MUC1-fs and MUC1-wt levels were then calculated only in the NCC positive cells. […]

CC(C)[C@@H]1[C@H]2CC[C@H](C2)[C@H]1N (racemic) [BRD-4780, 2-endo-amino-3-exo-isopropylbicyclo[2.2.1]heptane]
MUC1-fs in kidney tissue at highest dose (fs/+ mice, 50 mg/kg daily oral gavage, 7 days): nearly indistinguishable from control (+/+) mouse kidneys | MUC1-fs protein in mouse kidneys (mouse, in vivo): dose-dependent removal of mutant MUC1-fs protein
